Test results: US20250304567A1, “PYRROLIDIONE DERIVATIVES AS INHIBITORS OF NF KAPPA B INDUCING KINASE” (priority 2022, published 2025)
Read-outs that look alike come from different tables or passages of the source.

Columns and labels:
[1] = target: Recombinant Human NF-kappaB-Inducing Kinase (NIK/MAP3K14) (Homo sapiens, UniProt Q99558); test: Inhibition of auto-phosphorylation of recombinant human NIK/MAP3K14 activity (AlphaScreen); format: biochemical; details: 5 μM ATP, 1 nM NIK, average if tested more than once
Method in brief: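 GST-tagged NIK (1 nM) auto-phosphorylation with 5 μM ATP, 2 h at 25 °C, pH 7.5 Tris buffer, 0.7% DMSO; stopped with anti-phospho-IKK Ser176/180 antibody and read by AlphaScreen. Signal normalized to full-activity and no-enzyme/no-ATP controls; IC50 from sigmoidal fit of % inhibition vs log concentration.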

[2] = tested on: p-IKKa levels in L363 (NIK translocated multiple myeloma) cells; test: Effect of compounds on p-IKKa levels in L363 (NIK translocated multiple myeloma) cells (AlphaLISA SureFire Ultra p-IKKa Ser176/180); format: cell-based, human; details: average if tested more than once, read-out: Assay 2 IC50
Method in brief: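 L363 multiple myeloma cells, BAFF-stimulated overnight (250 ng/ml), then 6 h at 37 °C with compound (11-point 1:3 series, 0.3% DMSO) plus BAFF and 10 μM MG132. p-IKKa Ser176/180 read by AlphaLISA SureFire Ultra; IC50 from sigmoidal fit normalised to stimulated and unstimulated controls.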

[3] = Homo sapiens, L-363, p-IKKa levels in L363 cells

Sequence of Recombinant Human NF-kappaB-Inducing Kinase (NIK/MAP3K14) (Q99558 whole entry): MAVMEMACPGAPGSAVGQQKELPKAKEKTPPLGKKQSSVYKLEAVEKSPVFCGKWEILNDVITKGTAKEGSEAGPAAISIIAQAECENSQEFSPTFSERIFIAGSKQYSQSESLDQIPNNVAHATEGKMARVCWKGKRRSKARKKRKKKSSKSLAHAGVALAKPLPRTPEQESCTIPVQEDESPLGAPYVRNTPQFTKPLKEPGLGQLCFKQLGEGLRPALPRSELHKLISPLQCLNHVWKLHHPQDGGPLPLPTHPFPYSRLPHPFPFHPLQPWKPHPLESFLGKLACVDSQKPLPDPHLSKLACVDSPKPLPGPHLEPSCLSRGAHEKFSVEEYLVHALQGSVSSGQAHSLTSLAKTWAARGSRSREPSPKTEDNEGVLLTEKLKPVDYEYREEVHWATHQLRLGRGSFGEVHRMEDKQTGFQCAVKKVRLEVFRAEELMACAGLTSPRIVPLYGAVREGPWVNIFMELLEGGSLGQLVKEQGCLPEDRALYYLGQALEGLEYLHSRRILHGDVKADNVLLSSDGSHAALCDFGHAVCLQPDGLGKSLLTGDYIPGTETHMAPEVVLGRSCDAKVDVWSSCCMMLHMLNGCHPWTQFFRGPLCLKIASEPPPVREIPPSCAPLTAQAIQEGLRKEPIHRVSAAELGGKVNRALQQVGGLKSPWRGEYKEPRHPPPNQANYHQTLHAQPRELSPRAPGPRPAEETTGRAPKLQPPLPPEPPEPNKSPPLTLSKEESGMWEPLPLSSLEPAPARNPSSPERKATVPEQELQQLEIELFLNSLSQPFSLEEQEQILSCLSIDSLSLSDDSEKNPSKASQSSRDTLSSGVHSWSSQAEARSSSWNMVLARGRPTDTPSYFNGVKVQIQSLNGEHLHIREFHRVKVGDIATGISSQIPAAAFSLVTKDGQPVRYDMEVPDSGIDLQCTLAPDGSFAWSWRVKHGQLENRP

Structure (SMILES) | IC50 [1] [µM] | IC50 [2, 3] [µM] | IC50 ([2]; p-IKKa levels in L363 cells) [µM]
CN1CC[C@@](O)(c2cccc(-c3csc(-c4ccnc(Nc5ccnn5C)n4)n3)c2)C1=O [Example 5, (R)-3-hydroxy-1-methyl-3-(3-(2-(2-((1-methyl-1H-pyrazol-5-yl)amino)pyrimidin-4-yl)thiazol-4-yl)phenyl)pyrrolidin-2-one] | < 0.1 | < 0.1 | –
CN1CC[C@@](O)(c2cccc(-c3nc(-c4ccnc(Nc5cccc(C(F)(F)F)n5)n4)cs3)c2)C1=O [Example 169, (R)-3-Hydroxy-1-methyl-3-(3-(4-(2-((6-(trifluoromethyl)pyridin-2-yl)amino)pyrimidin-4-yl)thiazol-2-yl)phenyl)pyrrolidin-2-one] | < 0.1 | > 0.501 | –
CN1CC[C@@](O)(c2cccc(-c3nc(-c4ccnc(Nc5ccn(-c6ccccc6)n5)n4)cs3)c2)C1=O [Example 284, (R)-3-hydroxy-1-methyl-3-(3-(4-(2-((1-phenyl-1H-pyrazol-3-yl)amino)pyrimidin-4-yl)thiazol-2-yl)phenyl)pyrrolidin-2-one] | < 0.1 | 0.1 to 0.5 | –
C[C@H](Nc1nccc(-c2csc(-c3cccc([C@]4(O)CCN(C)C4=O)c3)n2)n1)c1cn[nH]c1 (single isomer, unassigned) [Example 138] | < 0.1 | > 0.501 | –
CN1CC[C@@](O)(c2ccnc(-c3csc(-c4ccnc(Nc5ccnn5C)n4)n3)c2)C1=O (single isomer, unassigned) [Example 144, (R)-3-hydroxy-1-methyl-3-(2-(2-(2-((1-methyl-1H-pyrazol-5-yl)amino)pyrimidin-4-yl)thiazol-4-yl)pyridin-4-yl)pyrrolidin-2-one or (S)-3-hydroxy-1-methyl-3-(2-(2-(2-((1-methyl-1H-pyrazol-5-yl)amino)pyrimidin-4-yl)thiazol-4-yl)pyridin-4-yl)pyrrolidin-2-one] | < 0.1 | 0.1 to 0.5 | –
CN1CC[C@@](O)(c2cccc(-c3csc(-c4ccnc(NC5COC5)n4)n3)c2)C1=O [Example 128, (R)-3-hydroxy-1-methyl-3-(3-(2-(2-(oxetan-3-ylamino)pyrimidin-4-yl)thiazol-4-yl)phenyl)pyrrolidin-2-one] | < 0.1 | 0.1 to 0.5 | –
CN1C[C@@H](Nc2nccc(-c3csc(-c4cccc([C@]5(O)CCN(C)C5=O)c4)n3)n2)CC1=O (single isomer, unassigned) [Example 235] | < 0.1 | > 0.501 | –
CN1CC[C@@](O)(c2cccc(-c3nc(-c4ccnc(N[C@H]5CCC[C@@H](O)C5)n4)cs3)c2)C1=O [Example 255] | 0.1 to 0.5 | > 0.501 | –
COc1nn(CC(F)F)cc1Nc1nccc(-n2ccc(-c3cncc([C@]4(O)CCN(C)C4=O)c3)n2)n1 (single isomer, unassigned) [Example 150, (R)-3-(5-(1-(2-((1-(2,2-difluoroethyl)-3-methoxy-1H-pyrazol-4-yl)amino)pyrimidin-4-yl)-1H-pyrazol-3-yl)pyridin-3-yl)-3-hydroxy-1-methylpyrrolidin-2-one or (S)-3-(5-(1-(2-((1-(2,2-difluoroethyl)-3-methoxy-1H-pyrazol-4-yl)amino)pyrimidin-4-yl)-1H-pyrazol-3-yl)pyridin-3-yl)-3-hydroxy-1-methylpyrrolidin-2-one] | < 0.1 | < 0.1 | –
CC(Nc1nccc(-c2nc(-c3cccc(C4(O)CCN(C)C4=O)c3)cs2)n1)c1cc[nH]n1 (single isomer, unassigned) [Example 42] | < 0.1 | – | > 0.501
CN1CC[C@@](O)(c2cccc(-c3nc(-c4ccnc(Nc5cnn(C6CCOC6)c5)n4)cs3)c2)C1=O (single isomer, unassigned) [Example 18] | < 0.1 | 0.1 to 0.5 | –
CN1CC[C@@](O)(c2cccc(-c3nc(-c4ccnc(NC5CC6CC(O)C5C6)n4)cs3)c2)C1=O (stereo partly drawn) [Example 220] | 0.1 to 0.5 | > 0.501 | –
